Measurements published in ChEMBL document CHEMBL1201862, “PubChem BioAssay data set” (2004).
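Each compound was tested at five concentrations against cells in 96-well plates for 48 hours. GI50 marks 50% less growth.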 Calls of active or inactive are those of the source. Cut-off read from the data, not from the text of the source: active = GI50 up to about 1.1 µM and inactive = higher.

Tests used:
Assay in all cases: growth of human tumour cells (NCI), 48 h
A549 = system: A549
BT-549 = system: BT-549
CAKI-1 = system: CAKI-1
DU-145 = system: DU-145
HOP-62 = system: HOP-62
Hs-578T = system: Hs-578T
MCF7 = system: MCF7
MDA-MB-231 = system: MDA-MB-231
Malme-3M = system: Malme-3M
NCI-H23 = system: NCI-H23
NCI/ADR-RES = system: NCI/ADR-RES
OVCAR-3 = system: OVCAR-3
SF-295 = system: SF-295
SK-OV-3 = system: SK-OV-3
U-251 = system: U-251
UO-31 = system: UO-31
HCC 2998 = system: HCC 2998
NCI-H460 = system: NCI-H460
SNB-75 = system: SNB-75

Measured: GI50

O=C1C2SC34c5c2c2ccccc2n5CCC3CCCN14 (stereo unspecified)
inactive: A549 > 100 µM | BT-549 > 100 µM | CAKI-1 48.4 µM | DU-145 > 100 µM | HOP-62 31.8 µM | Hs-578T 38.1 µM | MCF7 > 100 µM | MDA-MB-231 39.6 µM | Malme-3M > 100 µM | NCI-H23 > 100 µM | NCI/ADR-RES > 100 µM | OVCAR-3 65 µM | SF-295 55.2 µM | SK-OV-3 > 100 µM | U-251 33.9 µM | UO-31 > 100 µM

N#Cc1c(-c2ccc([N+](=O)[O-])cc2)cc(-c2ccc(Nc3ccnc4cc(C(F)(F)F)ccc34)cc2)[nH]c1=O
inactive: A549 > 100 µM | BT-549 > 100 µM | CAKI-1 > 100 µM | DU-145 71.3 µM | HCC 2998 > 100 µM | HOP-62 > 100 µM | MCF7 > 100 µM | MDA-MB-231 16.3 µM | Malme-3M > 100 µM | NCI-H23 > 100 µM | NCI-H460 > 100 µM | NCI/ADR-RES > 100 µM | SF-295 > 100 µM | SK-OV-3 > 100 µM | SNB-75 > 100 µM | U-251 10 µM | UO-31 > 100 µM

Nc1cccc2cc(Cl)cnc12
inactive: A549 > 100 µM | BT-549 > 100 µM | CAKI-1 > 100 µM | DU-145 > 100 µM | HCC 2998 > 100 µM | HOP-62 > 100 µM | Hs-578T 36.3 µM | MDA-MB-231 > 100 µM | Malme-3M > 100 µM | NCI-H23 > 100 µM | NCI-H460 > 100 µM | NCI/ADR-RES > 100 µM | OVCAR-3 96.8 µM | SF-295 > 100 µM | SK-OV-3 > 100 µM | SNB-75 34.4 µM | U-251 > 100 µM | UO-31 26.7 µM

CC(C)(Oc1ccc(Cl)cc1)C(=O)N(C(=O)N1CCCCC1)c1ccccc1
inactive: BT-549 15.4 µM | CAKI-1 14.4 µM | DU-145 14.7 µM | Hs-578T 16.9 µM | MCF7 19.6 µM | MDA-MB-231 10.6 µM | Malme-3M 12 µM | NCI-H23 14.2 µM | NCI/ADR-RES 14.5 µM | OVCAR-3 23.9 µM | SK-OV-3 19.8 µM | U-251 14.2 µM | UO-31 10.8 µM

COC(=O)[C@@]12CCCC(=O)[C@@H]1[C@H]1CCC[C@H]12
inactive: A549 > 100 µM | BT-549 > 100 µM | CAKI-1 > 100 µM | DU-145 > 100 µM | HCC 2998 > 100 µM | HOP-62 > 100 µM | MCF7 > 100 µM | MDA-MB-231 > 100 µM | Malme-3M > 100 µM | NCI-H23 > 100 µM | NCI-H460 > 100 µM | NCI/ADR-RES > 100 µM | OVCAR-3 > 100 µM | SF-295 > 100 µM | SK-OV-3 > 100 µM | SNB-75 > 100 µM | U-251 > 100 µM | UO-31 > 100 µM

CC(=O)Oc1ccc2[nH]c3c(C)c4cccc-4ccc3c2c1
inactive: A549 2.26 µM | BT-549 2.34 µM | CAKI-1 1.86 µM | DU-145 3.27 µM | HCC 2998 2.18 µM | HOP-62 2.29 µM | Hs-578T 2.64 µM | MCF7 2.65 µM | Malme-3M 1.78 µM | NCI-H23 1.99 µM | NCI-H460 2.94 µM | NCI/ADR-RES 2.28 µM | OVCAR-3 1.62 µM | SF-295 2.02 µM | SK-OV-3 2.02 µM | UO-31 1.76 µM

CCNCCNC(=O)c1ccc(Br)cc1
inactive: A549 > 100 µM | BT-549 > 100 µM | CAKI-1 > 100 µM | HCC 2998 > 100 µM | Hs-578T > 100 µM | MCF7 > 100 µM | NCI-H23 > 100 µM | NCI-H460 > 100 µM | NCI/ADR-RES > 100 µM | OVCAR-3 > 100 µM | SK-OV-3 > 100 µM | SNB-75 63.4 µM | U-251 > 100 µM | UO-31 > 100 µM

Cc1c(C)c(S(=O)(=O)N(CCCCCN)OCCCN)c(C)c2c1OC(C)(C)CC2
inactive: A549 16 µM | BT-549 13.5 µM | CAKI-1 20.5 µM | DU-145 25.1 µM | HCC 2998 2.27 µM | HOP-62 8.05 µM | Hs-578T 6.73 µM | MDA-MB-231 5.89 µM | Malme-3M 14.3 µM | NCI-H23 14.6 µM | NCI-H460 6.35 µM | NCI/ADR-RES 20.6 µM | OVCAR-3 5.9 µM | SF-295 17.4 µM | SK-OV-3 13.4 µM | SNB-75 6.4 µM | U-251 5.64 µM | UO-31 20.1 µM

Cc1ccnc(NS(=O)(=O)c2ccc(N=[N+]=[N-])cc2)n1
inactive: A549 > 100 µM | BT-549 > 100 µM | CAKI-1 > 100 µM | DU-145 > 100 µM | HOP-62 > 100 µM | Hs-578T > 100 µM | MCF7 > 100 µM | Malme-3M > 67.9 µM | NCI-H23 > 100 µM | NCI-H460 > 100 µM | NCI/ADR-RES > 100 µM | OVCAR-3 > 100 µM | SF-295 > 100 µM | SK-OV-3 > 100 µM | SNB-75 > 100 µM | U-251 > 100 µM | UO-31 > 100 µM

CS(=O)(=O)Nc1ccc(N2Cc3c[nH]c4ccc5nccc2c5c34)cc1
inactive: A549 33.4 µM | BT-549 21.8 µM | CAKI-1 31.5 µM | DU-145 18.3 µM | HOP-62 17.5 µM | Hs-578T 39.1 µM | MCF7 8.65 µM | MDA-MB-231 13.6 µM | Malme-3M 4.54 µM | NCI-H23 24.6 µM | NCI-H460 19.4 µM | NCI/ADR-RES > 100 µM | OVCAR-3 9.98 µM | SF-295 27.7 µM | U-251 15.4 µM | UO-31 > 100 µM

Cc1cccc(Cn2c3c(c4cc(O)ccc42)C(=O)c2ccccc2C3=O)c1
inactive: A549 11.3 µM | BT-549 24.3 µM | CAKI-1 > 26.5 µM | DU-145 > 100 µM | HOP-62 4.58 µM | Hs-578T 24.4 µM | MCF7 23.2 µM | MDA-MB-231 6.35 µM | Malme-3M 19.1 µM | NCI-H23 15.4 µM | NCI-H460 25.6 µM | NCI/ADR-RES 6.84 µM | OVCAR-3 > 31.6 µM | SF-295 3.89 µM | SK-OV-3 3.44 µM | SNB-75 1.97 µM | U-251 8.59 µM | UO-31 > 54.2 µM

Nc1nc(-c2ccccc2)c(CC(=O)O)s1
inactive: A549 > 100 µM | BT-549 > 100 µM | CAKI-1 > 100 µM | DU-145 > 100 µM | HOP-62 > 100 µM | Hs-578T > 100 µM | MCF7 > 100 µM | MDA-MB-231 > 100 µM | Malme-3M > 100 µM | NCI-H460 > 100 µM | NCI/ADR-RES > 100 µM | OVCAR-3 > 100 µM | SF-295 > 100 µM | SK-OV-3 > 100 µM | SNB-75 > 100 µM | U-251 > 100 µM | UO-31 > 100 µM

Cc1cc2ncc3c(=O)n(NS(=O)(=O)c4ccc(N)cc4)ccc3n2n1
inactive: A549 > 100 µM | BT-549 > 100 µM | CAKI-1 > 100 µM | DU-145 > 100 µM | HOP-62 > 100 µM | Hs-578T > 100 µM | MCF7 > 100 µM | MDA-MB-231 > 100 µM | Malme-3M 36.3 µM | NCI-H23 > 100 µM | NCI-H460 > 100 µM | OVCAR-3 > 100 µM | SF-295 > 100 µM | SK-OV-3 > 100 µM | SNB-75 > 100 µM | U-251 > 100 µM | UO-31 > 100 µM

CCO[C@H]1C[C@@H](c2ccccc2)[C@]2(C)C[C@H](C(=O)OC)ON2O1
inactive: A549 > 100 µM | BT-549 > 100 µM | CAKI-1 > 100 µM | DU-145 > 100 µM | HOP-62 > 100 µM | Hs-578T > 100 µM | MCF7 > 100 µM | MDA-MB-231 > 100 µM | Malme-3M > 100 µM | NCI-H23 > 100 µM | NCI/ADR-RES > 100 µM | OVCAR-3 > 100 µM | SF-295 > 100 µM | U-251 > 100 µM | UO-31 > 100 µM

CCc1ccccc1NC(=O)C(C#N)C1=C(Cl)C(=O)c2ccccc2C1=O (stereo unspecified)
inactive: A549 21.9 µM | BT-549 21.9 µM | CAKI-1 20.3 µM | DU-145 17.4 µM | HOP-62 19.1 µM | Hs-578T 19.3 µM | MCF7 22.8 µM | MDA-MB-231 7.03 µM | Malme-3M 6.07 µM | NCI-H23 12.6 µM | NCI-H460 19.7 µM | NCI/ADR-RES 16.7 µM | OVCAR-3 5.69 µM | SF-295 20.9 µM | SK-OV-3 36.6 µM | SNB-75 17.3 µM | U-251 15.4 µM | UO-31 13 µM

Cc1c(-c2ccc(O)c(O)c2)oc(=O)c2c(O)cccc12
inactive: A549 7.93 µM | BT-549 6.24 µM | CAKI-1 7.35 µM | DU-145 14.4 µM | HCC 2998 10.4 µM | HOP-62 10.7 µM | Hs-578T 3.03 µM | MCF7 6.68 µM | Malme-3M 13.3 µM | NCI-H23 10.3 µM | NCI-H460 11.6 µM | NCI/ADR-RES 10.5 µM | OVCAR-3 11.6 µM | SF-295 17.7 µM | SK-OV-3 6.04 µM | SNB-75 13.3 µM | U-251 12.1 µM | UO-31 11.1 µM
